Experimental findings from paper PMC4802734 (Cell Chemical Biology, 2016) are described below.

One data set has as its target T1, PrfAWT (Listeria monocytogenes serovar 1/2a, UniProt P22262).
T1 construct: followed by residues Glu7-N237; vector-derived N-terminal tail […]; (left after thrombin cleavage; inferred from pET28a and Ni-NTA capture), removed by thrombin (N, cleaved yes); made in house; host or cells: E. coli BL21(DE3)
The data set can be described thus: Isothermal titration calorimetry (ITC), binding to purified PrfAWT.

In data set [1] the test system is L. monocytogenes strain EGDe (WT) uptake by HeLa cells. It is filed as cell-based, Listeria monocytogenes. The following applies: 10 and 1 μM, viable count. An excerpt: (§1) Figure 1 Ring-Fused 2-Pyridones Inhibit L. monocytogenes Uptake by Cultured Cells (A) Relative uptake (%) compared with control as determined by viable count measurements. […] All samples were correlated to the DMSO control (C, gray bar), which was arbitrarily set at 100%. Error bars show SDs. […] See also Figure S1. […] Error bars show SDs.

In data set [2] the target is T2, PrfAWT binding to hly-DNA (Listeria monocytogenes serovar 1/2a, UniProt P22262).
T2 construct: followed by residues Glu7-N237; vector-derived N-terminal tail […]; (left after thrombin cleavage; inferred from pET28a and Ni-NTA capture), removed by thrombin (N, cleaved yes); made in house; host or cells: E. coli BL21(DE3)
The data set can be described thus: SPR, binding of compound-pre-incubated PrfAWT to hly-promoter DNA. It is filed as biochemical. The following applies: 200 nM protein, 37°C, read-out: IC50, reduction of binding of PrfAWT to hly-DNA.

In data set [3] the test system is L. monocytogenes carrying PrfAWT in Caco-2 cells. Kind of data set: Time-course infection of Caco-2 cells, strain carrying PrfAWT. Type of data set: cell-based, Listeria monocytogenes. Particulars: viable counts, 50 μM / 100 μM.
Text: as §1

For data set [4], the system named is L. monocytogenes strain F2365 uptake into Caco-2 cells. Kind of data set: Uptake of L. monocytogenes strain F2365 into Caco-2 cells. The following applies: 50 μM, 2 hr. Type of data set: cell-based, Listeria monocytogenes. The method, then:
Protein extracts were isolated from indicated L. monocytogenes strain in the absence (C, equivalent volume DMSO) or presence of 100 μM of 1 and the specified proteins (LLO PrfA, or P60 (control)) were detected by western blot using specific antibodies. […] (B) Compound 2 inhibits the uptake of an L. monocytogenes strain of serovar 4b. L. monocytogenes strain F2365 was allowed to infect Caco-2 cells for 2 hr with 2 (50 μM). All samples were correlated to the DMSO-treated control (C, gray bar) which was arbitrarily set at 100%. Error bars show SDs.

The test system of data set [5] is LLO and ActA expression in L. monocytogenes. Kind of data set: Western blot of virulence protein levels (LLO, ActA, PrfA, P60), EGDe. It is filed as cell-based, Listeria monocytogenes. Particulars: for expression of LLO and ActA (protein): 100 μM; for PrfA expression (protein): across all concentrations. The method, then: (§2) (D) Compound 2 abrogates intracellular induction of ActA expression. Caco-2 cells were infected with the indicated bacteria and treated 30 min post infection with 100 μM of 2 or the equivalent volume of DMSO (C). Total cellular protein was extracted at indicated time points after addition of compound and subjected to SDS-PAGE. The levels of ActA protein were visualized by western blot using a specific antibody.
A detailed procedure is provided in the Supplemental Experimental Procedures.
concentration of 0.1% DMSO. […] The
incubated on ice for 1 h.
washed in 80% ice cold acetone.
Subsequently the samples were centrifuged and the
added lysozyme and DNase.
secondary antibodies (Dako P0260).

In data set [6] the test system is intracellular ActA expression of L. monocytogenes in Caco-2 cells. Kind of data set: Intracellular ActA levels in infected Caco-2 cells, compound added 30 min post infection. Particulars: 100 μM added 30 min post infection, 4 hr post infection. Type of data set: cell-based, Listeria monocytogenes. The method, then:
as §2
ActA western blotting detection for intracellular bacteria: The collected bacterial pellets were resuspended in 100µl 1x sample buffer (Laemmli, 1970) and lysed by incubation at 98 °C for 20 min. 10µL of each sample was subjected to SDS-PAG and Western blotting using anti-ActA […]
Production of antibodies against ActA was conducted by Agrisera. The antibodies were raised in rabbits, against a peptide mix consisting of Y21T(Kocks et al., 1993) and (NH2-) […]
(-CONH2). The rabbits were immunized four times over a four month period, the first with FCA and the subsequent with FIA. The antisera was recovered 2 weeks after the last immunization.
Infection for determination of intracellular ActA levels
Caco-2 cells were seeded into 24 well plates (Corning #356408) and allowed to grow until confluent. Indicated bacterial strains were grown to OD600 = 1, added to CaCo-2 cells at a MOI of 10, centrifuged for 10 min at 800 g and allowed to infect for 30 minutes. […]

The data set “crystal structure” concerns the molecule itself. Kind of data set: crystal structure.

“Also recorded” adds a separate entry of the source.

As to `Cc1ccc(Cc2cc(=O)n3c(c2C2CC2)SC[C@H]3C(=O)O)c2ccccc12` [compound 2], on PrfAWT, the “binding stoichiometry per monomer of homodimeric PrfA” value fell in the range of 1 to 1. The “L. monocytogenes uptake relative to untreated controls” value in data set [1] was “reducing the level of L. monocytogenes uptake”. The IC50 in data set [2] was in the range of 6 to 7 µM. Moreover, the “replication of L. monocytogenes (PrfAWT) within Caco-2 cells” value in data set [3] is reported as “inability of L. monocytogenes to replicate; also recorded: unable to replicate”. Further, the “uptake of the F2365 strain into Caco-2 cells” value in data set [4] was “effectively inhibited uptake”. In addition, in data set [5], the “expression of LLO and ActA (protein)” value is “abolished”; the “PrfA expression (protein)” value is “remained unchanged”. Moreover, in data set [5] (dose dependent), the “concentration down to which LLO and ActA levels were decreased” value was no more than 3.3 µM. Also, the “induction of intracellular ActA levels” value in data set [6] is reported as “weakened in compound-treated cells, although not completely abolished”.

Turning to `O=C(O)[C@@H]1CSc2c(C3CC3)c(Cc3cnc4ccccc4c3)cc(=O)n21` [compound 3], the “binding stoichiometry per monomer of homodimeric PrfA” value at PrfAWT fell in the range of 1 to 1. The “L. monocytogenes uptake relative to untreated controls” value in data set [1] is “consistently failed to attenuate uptake”. In addition, the IC50 in data set [2] was roughly 30 µM. Moreover, in data set [5], the “expression of LLO and ActA (protein)” value was “did not reduce LLO or ActA expression”; the “PrfA expression (protein)” value is on record as “remained unchanged”.

B1: PrfA wild type (transcriptional activator PrfA of Listeria monocytogenes) (natural protein)
chain: MNAQAEEFKKYLETNGIKPKQFHKKELIFNQWDPQEYCIFLYDGITKLTSISENGTIMNLQYYKGAFVIMSGFIDTETSVGYYNLEVISEQATAYVIKINELKELLSKNLTHFFYVFQTLQKQVSYSLAKFNDFSINGKLGSICGQLLILTYVYGKETPDGIKITLDNLTMQELGYSSGIAHSSAVSRIISKLKQEKVIVYKNSCFYVQNLDYLKRYAPKLDEWFYLACPATWGKLN
notes: also called PrfAWT; source: purified PrfA protein
Consider B1, for which the “stoichiometry N” value in the data set “crystal structure” is 2.
